These results are taken from patent publication US20210277015A1, “OGA INHIBITOR COMPOUNDS” (Janssen Pharmaceutica NV, priority 2018, published 2021).

SMILES strings stand for the structures.

Experiment [1] deals with T1, recombinant human Meningioma Expressed Antigen 5 (MGEA5), also referred to as O-GlcNAcase (OGA) (Homo sapiens, UniProt O60502).
T1 construct: Full length OGA enzyme was purchased at OriGene (cat #TP322411); purchased OriGene TP322411
T1 sequence (O60502 1-916): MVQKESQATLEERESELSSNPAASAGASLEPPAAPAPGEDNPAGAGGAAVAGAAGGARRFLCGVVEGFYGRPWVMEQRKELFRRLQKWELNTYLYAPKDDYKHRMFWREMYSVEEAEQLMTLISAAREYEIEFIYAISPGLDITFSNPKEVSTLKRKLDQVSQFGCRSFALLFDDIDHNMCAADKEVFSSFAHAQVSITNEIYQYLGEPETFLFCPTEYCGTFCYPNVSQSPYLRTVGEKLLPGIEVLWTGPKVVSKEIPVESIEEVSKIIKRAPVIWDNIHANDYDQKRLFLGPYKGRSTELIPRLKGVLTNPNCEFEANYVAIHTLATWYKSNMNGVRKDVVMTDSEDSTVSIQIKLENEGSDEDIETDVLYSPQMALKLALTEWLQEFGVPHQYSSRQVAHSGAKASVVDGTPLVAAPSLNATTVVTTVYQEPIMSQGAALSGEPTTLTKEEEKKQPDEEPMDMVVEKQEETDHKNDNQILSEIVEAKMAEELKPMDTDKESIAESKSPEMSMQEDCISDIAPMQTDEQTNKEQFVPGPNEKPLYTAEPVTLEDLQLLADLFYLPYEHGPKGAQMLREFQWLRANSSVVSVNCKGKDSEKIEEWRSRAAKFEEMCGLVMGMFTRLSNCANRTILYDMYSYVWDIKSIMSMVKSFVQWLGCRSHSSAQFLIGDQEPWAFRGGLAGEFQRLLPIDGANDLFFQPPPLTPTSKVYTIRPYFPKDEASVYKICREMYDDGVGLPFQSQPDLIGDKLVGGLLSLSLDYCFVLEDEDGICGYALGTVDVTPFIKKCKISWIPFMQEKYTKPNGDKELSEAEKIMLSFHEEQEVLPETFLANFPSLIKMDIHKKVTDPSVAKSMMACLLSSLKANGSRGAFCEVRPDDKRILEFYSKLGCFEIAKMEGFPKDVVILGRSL
In words: OGA biochemical assay (inhibition of FM-GlcNAc hydrolysis, fluorescence). The note with it: FM-GlcNAc substrate; for IC50: 6 h at room temperature, read-out: Enzymatic hOGA, pIC50 (converted); for Emax / Enzymatic Emax (%): maximal effect; for Emax: read-out: Enzymatic Emax (%). An excerpt:
The assay is based on the inhibition of the hydrolysis of fluorescein mono-β-D-N-Acetyl-Glucosamine (FM-GlcNAc) (Mariappa et al. 2015, Biochem J 470:255) by the recombinant human Meningioma Expressed Antigen 5 (MGEA5), also referred to as O-GlcNAcase (OGA). The hydrolysis FM-GlcNAc (Marker Gene technologies, cat #M1485) results in the formation of β-D-N-glucosamineacetate and fluorescein. The fluorescence of the latter can be measured at excitation wavelength 485 nm and emission wavelength 538 nm. An increase in enzyme activity results in an increase in fluorescence signal. Full length OGA enzyme was purchased at OriGene (cat #TP322411). The enzyme was stored in 25 mM Tris.HCl, pH 7.3, 100 mM glycine, 10% glycerol at −20° C. Thiamet G and GlcNAcStatin were tested as reference compounds (Yuzwa et al. 2008 Nature Chemical Biology 4:483; Yuzwa et al. 2012 Nature Chemical Biology 8:393). The assay was performed in 200 mM Citrate/phosphate buffer supplemented with 0.005% Tween-20. 35.6 g Na2HPO4 2 H2O (Sigma, #C0759) were dissolved in 1 L water to obtain a 200 mM solution. 19.2 g citric acid (Merck, #1.06580) was dissolved in 1 L water to obtain a 100 mM solution. pH of the sodium phosphate solution was adjusted with the citric acid solution to 7.2. The buffer to stop the reaction consists of a 500 mM Carbonate buffer, pH 11.0. 734 mg FM-GlcNAc were dissolved in 5.48 mL DMSO to obtain a 250 mM solution and was stored at −20° C. OGA was used at a 2 nM concentration and FM-GlcNAc at a 100 uM final concentration. Dilutions were prepared in assay buffer.
50 nl of a compound dissolved in DMSO was dispensed on Black Proxiplate™ 384 Plus Assay plates (Perkin Elmer, #6008269) and 3 μl fl-OGA enzyme mix added subsequently. Plates were pre-incubated for 60 min at room temperature and then 2 μl FM-GlcNAc substrate mix added. […] Plates were briefly centrifuged for 1 min at 1000 rpm and incubate at room temperature for 6 h. To stop the reaction 5 μl STOP buffer were added and plates centrifuge again 1 min at 1000 rpm. Fluorescence was quantified in the Thermo Scientific Fluoroskan Ascent or the PerkinElmer EnVision with excitation wavelength 485 nm and emission wavelength 538 nm.
For analysis a best-fit curve is fitted by a minimum sum of squares method. From this an IC50 value and Hill coefficient was obtained. High control (no inhibitor) and low control (saturating concentrations of standard inhibitor) were used to define the minimum and maximum values.

In a further experiment the target is T2, OGA (Homo sapiens, UniProt O60502).
T2 construct: endogenous in cells; host or cells: HEK293 cells inducible for P301L mutant human Tau (isoform 2N4R)
T2 sequence (O60502 1-916): T1 sequence (O60502 1-916)
Kind of experiment: OGA cellular assay (ICC detection of O-GlcNAcylated proteins in HEK293 cells inducible for P301L mutant human Tau). Type of experiment: cell-based. Particulars: for Emax: HEK293, HEK293 cells inducible for P301L mutant human Tau; for Emax / Cellular Emax (%): maximum defined by Thiamet G at 200 uM; for EC50 / Cellular Emax (%) / Cellular hOGA; pEC50: HEK293 cells inducible for P301L mutant human Tau; for EC50 / Cellular hOGA; pEC50: 6 hours incubation, ICC O-GlcNAcylation; for EC50: read-out: Cellular hOGA, pEC50 (converted). How it is done: HEK293 cells inducible for P301L mutant human Tau (isoform 2N4R) were established at Janssen. Thiamet-G was used for both plate validation (high control) and as reference compound (reference EC50 assay validation). OGA inhibition is evaluated through the immunocytochemical (ICC) detection of O-GlcNAcylated proteins by the use of a monoclonal antibody (CTD110.6; Cell Signaling, #9875) detecting O-GlcNAcylated residues as previously described (Dorfmueller et al. 2010 Chemistry & biology, 17:1250). Inhibition of OGA will result in an increase of O-GlcNAcylated protein levels resulting in an increased signal in the experiment. Cell nuclei are stained with Hoechst to give a cell culture quality control and a rough estimate of immediate compounds toxicity, if any. ICC pictures are imaged with a Perkin Elmer Opera Phenix plate microscope and quantified with the provided software Perkin Elmer Harmony 4.1.
Cells were propagated in DMEM high Glucose (Sigma, #D5796) following standard procedures. 2 days before the cell assay cells are split, counted and seeded in Poly-D-Lysine (PDL) coated 96-wells (Greiner, #655946) plate at a cell density of 12,000 cells per cm^2 (4,000 cells per well) in 100 μl of Assay Medium (Low Glucose medium is used to reduce basal levels of GlcNAcylation) (Park et al. 2014 The Journal of biological chemistry 289:13519). At the day of compound test medium from assay plates was removed and replenished with 90 μl of fresh Assay Medium. 10 μl of compounds at a 10 fold final concentration were added to the wells. Plates were centrifuged shortly before incubation in the cell incubator for 6 hours. DMSO concentration was set to 0.2%. Medium is discarded by applying vacuum. For staining of cells medium was removed and cells washed once with 100 μl D-PBS (Sigma, #D8537). From next step onwards unless other stated assay volume was always 50 μl and incubation was performed without agitation and at room temperature. Cells were fixed in 50 μl of a 4% paraformaldehyde (PFA, Alpha aesar, #043368) PBS solution for 15 minutes at room temperature. […] Before analysis samples were washed 2 times manually for 5 minutes in ICC base buffer.
Imaging is performed using Perkin Elmer Phenix Opera using a water 20× objective and recording 9 fields per well. Intensity readout at 488 nm is used as a measure of O-GlcNAcylation level of total proteins in wells. To assess potential toxicity of compounds nuclei were counted using the Hoechst staining. IC50-values are calculated using parametric non-linear regression model fitting. As a maximum inhibition Thiamet G at a 200 uM concentration is present on each plate. In addition, a concentration response of Thiamet G is calculated on each plate.

Turning to `COc1cc(C[C@H]2CN(C(C)c3ccc4c(n3)OCCO4)C[C@@H]2C)cc(C)n1` (mixture of isomers) [Product 120], in experiment [1], the IC50 was 158 nM and the Emax (usually the greatest response seen or fitted, relative to the assay's reference) was 100%. At OGA, the Emax came out at 36% and the EC50 was more than 1000 nM.
Take `COc1cc(C[C@H]2CCN(C(C)c3cc4c(cc3F)OCCO4)C2)cc(C)n1` (single isomer, unassigned) [Product 10]: in experiment [1], the IC50 is 1580 nM and the Emax amounted to 88%. Besides, on OGA, the EC50 is more than 1000 nM and the “Cellular Emax (%)” value is given as −5%.
As to `COc1cc(C[C@H]2CCN(C(C)c3cc4c(cc3F)OCCO4)C2)cc(C)n1` (single isomer, unassigned) [Product 11], in experiment [1], the IC50 was 25.1 nM and the “Enzymatic Emax (%)” value is 102%. Also, on OGA, the EC50 is 200 nM and the “Cellular Emax (%)” value is recorded as 83%.
Turning to `Cc1cc(C[C@H]2CCN([C@@H](C)c3ccc4c(c3)OCC4)C2)cc(C)n1` (single isomer, unassigned) [Product 14], in experiment [1], the IC50 was 50.1 nM and the Emax amounted to 103%. Moreover, on OGA, the Emax stood at 74% and the EC50 was 126 nM.
For the molecule `Cc1cc(O[C@@H]2CCN(C(C)c3nc4c(cc3F)CCO4)C2)cc(C)n1` (single isomer, unassigned) [Product 18], in experiment [1], the IC50 is 158 nM and the Emax turned out to be 98%. Also, the “Cellular Emax (%)” value on OGA stood at 42%.
For `Cc1cc(O[C@@H]2CCN(C(C)c3nc4c(cc3F)CCO4)C2)cc(C)n1` (single isomer, unassigned) [Product 19], in experiment [1], the IC50 was 1.58 nM and the “Enzymatic Emax (%)” value is on record as 97%. At OGA, the EC50 was 18.6 nM and the “Cellular Emax (%)” value was 94%.
`CC(c1cc2c(cc1F)OCCO2)N1CC[C@H](Cc2ncc(F)cc2F)C1` (single isomer, unassigned) [Product 29]: in experiment [1], the IC50 is 50.1 nM and the “Enzymatic Emax (%)” value was found to be 102%. At OGA, the Emax was found to be 35% and the EC50 was more than 1000 nM.
As for `Cc1cc(C[C@@H]2CCN(C(C)c3cnc4c(c3)OCCO4)C2)cc(C)n1` (single isomer, unassigned) [Product 35], in experiment [1], the IC50 was 7940 nM and the “Enzymatic Emax (%)” value is 54%. At OGA, the EC50 is more than 1000 nM and the “Cellular Emax (%)” value is on record as −6%.
Consider `Cc1cc(C[C@@H]2CCN(C(C)c3cnc4c(c3)OCCO4)C2)cc(C)n1` (single isomer, unassigned) [Product 36], for which, in experiment [1], the IC50 was 200 nM and the “Enzymatic Emax (%)” value turned out to be 99%. Also, on OGA, the “Cellular hOGA; pEC50” value is on record as less than 6 and the “Cellular Emax (%)” value was 15%.
For the molecule `Cc1cc(O[C@@H]2CCN(C(C)c3nc4c(cc3F)OCCO4)C2)cc(C)n1` (single isomer, unassigned) [Product 40], in experiment [1], the IC50 is 7.94 nM and the Emax stood at 100%. Besides, on OGA, the EC50 is 158 nM and the “Cellular Emax (%)” value is recorded as 84%.
`Cc1cc(O[C@@H]2CCN(C(C)c3nc4c(cc3F)OCCO4)C2)cc(C)n1` (single isomer, unassigned) [Product 41]: in experiment [1], the IC50 is 1580 nM and the “Enzymatic Emax (%)” value was found to be 87%. Besides, at OGA, the EC50 is more than 1000 nM and the “Cellular Emax (%)” value is reported as −13%.
Consider `Cc1cc(C[C@@H]2CCN(C(C)c3nc4c(cc3F)OCCO4)C2)cc(C)n1` (single isomer, unassigned) [Product 51], for which, in experiment [1], the IC50 was 398 nM and the Emax was found to be 96%. Moreover, at OGA, the EC50 was more than 1000 nM and the “Cellular Emax (%)” value is reported as 8%.
For the molecule `Cc1cc(C[C@@H]2CCN(C(C)c3nc4c(cc3F)OCCO4)C2)cc(C)n1` (single isomer, unassigned) [Product 52], in experiment [1], the IC50 was 6.31 nM and the “Enzymatic Emax (%)” value was determined as 101%. Also, on OGA, the EC50 is 63.1 nM and the “Cellular Emax (%)” value is reported as 80%.
For `CC(c1ccc2c(n1)OCCO2)N1CC[C@@H](Oc2ccc(C#N)nn2)C1` (single isomer, unassigned) [Product 54] the same measures were more than 10000 nM, 19%, more than 1000 nM and 2%.
With `CC(c1ccc2c(n1)OCCO2)N1CC[C@@H](Oc2ccc(C#N)nn2)C1` (single isomer, unassigned) [Product 55], in experiment [1], the IC50 was 200 nM and the “Enzymatic Emax (%)” value came out at 94%. Besides, on OGA, the “Cellular hOGA; pEC50” value is less than 6 and the “Cellular Emax (%)” value came to 24%.
